Article PMC10917278, “Structural insights into the modulation Of SOD1 aggregation By a fungal metabolite Phialomustin-B: Therapeutic potential in ALS” (PLOS ONE, 2024)

Target: T1, SOD1^A4V (Homo sapiens, UniProt P00441, A5V)
T1 construct: The full-length constructs of SOD1-wild type (aa: 1–145) and its corresponding SOD1 disease mutant, SOD1^A4V; His-tag (cleaved yes); made in house; host or cells: E. coli BL21 DE3
Assay: Thioflavin T (ThT) fluorescence aggregation assay, SOD1^A4V
Assay type: biochemical
Conditions: for kapp / t50 / tlag: 37 °C, reduced conditions
Method: Following the co-crystal structure elucidation of SOD1 in complex with PB, we wanted to identify the effect of PB on the aggregation of SOD1^WT and its disease mutant, SOD1^A4V. A comprehensive analysis of the anti-aggregation propensity of PB was performed using a ThT-based fluorescence assay and analytical size-exclusion based chromatography (SEC) assay. We used Thioflavin-T, a β-sheet formation reporter, to assess the aggregation of SOD1. Time lag (tlag) is a kinetic parameter used to evaluate the lag phase of fibrillation. Fibril elongation was used to evaluate the rate of β sheet formation. […] Similar effects on lag time are also observed for SOD1^A4V. […] Moreover, ThT-based aggregation assays were also performed for the PB site-specific mutants, SOD1^A123F, SOD1^K9F, SOD1^L42R, and SOD1^G10P (S4a, S4c, S4e and S4g Fig). As expected based on the abovementioned MST results, the aggregation analysis is inconclusive as these mutants, which correspond to the ligand binding residues, cause a loss of protein-ligand interactions.
Fig 6 Aggregation studies of metallated and reduced SOD1^WT and SOD1^A4V on treatment with PB. ThT fluorescence was monitored during the co-incubation of metallated SOD1^WT (50 μM) (a) or SOD1^A4V (50 μM) (b) with PB at 1:30 molar ratio at 37 °C with continuous shaking, under reduced conditions. The values were normalized to the maximal ThT intensity elicited by SOD1^WT or SOD1^A4V and fitted to a Boltzmann sigmoidal equation. The control and PB-treated species were compared to analyse the effects of PB on the aggregation of SOD1^WT and SOD1^A4V. Error bars indicate the standard deviation. Analytical SEC of metallated SOD1^WT (50 μM) (c) and SOD1^A4V (50 μM) (d) with PB were analyzed under reducing conditions before and after 24 hrs and 48 hrs incubation at 37 °C. The first peak eluting at the volume was denoted as oligomerized SOD1^WT/SOD1^A4V (L). The second, third, and fourth peaks were calculated as trimer (T), dimer (D), and monomer (M) species of SOD1^WT/SOD1^A4V running at 14.5 ml, 15.7 ml, and 16.5 ml, respectively. […] The monomer (M), dimer (D), trimer (T), and large aggregate (L) species are shown as green, purple, red, and black dotted lines, respectively. All the experiments were performed for n = 3 biological replicates.
Fig 7 Aggregation studies of de-metallated and reduced SOD1^WT and SOD1^A4V on treatment with PB. ThT fluorescence was monitored during the co-incubation of de-metallated SOD1^WT (50 μM) (a) or SOD1^A4V (50 μM) (b) with PB at 1:30 molar ratio at 37 °C with continuous shaking, under reduced conditions. The values were normalized to the maximal ThT intensity elicited by SOD1^WT or SOD1^A4V and fitted to a Boltzmann sigmoidal equation. The control and PB-treated species were compared to analyse PB’s effects on the aggregation of SOD1^WT and SOD1^A4V. Analytical SEC of de-metallated SOD1^WT (50 μM) (a) and SOD1^A4V (50 μM) (b) with PB were analysed under reducing conditions before and after 24 hrs and 48 hrs incubation at 37 °C. The first peak eluting at the volume was denoted as oligomerized SOD1^WT (L) runs at 9.2 ml. The second, third, and fourth peaks were calculated as trimer (T), dimer (D), and monomer (M) species of SOD1^WT/SOD1^A4V running at 14.5 ml, 15.7 ml, and 16.5 ml, respectively. […] In the case of SOD1^A4V, PB eliminates the formation of large aggregates compared to the control (48hrs-EC, EC represents control with EDTA). The monomer (M), dimer (D), trimer (T), and large aggregate (L) species are shown as green, purple, red, and black dotted lines, respectively. All the experiments were performed for n = 3 biological replicates.
Aggregation assays were performed on SOD1^WT, the disease mutant A4V, and ligand-binding site-specific mutants to check the anti-aggregation activity of PB on the former. […] The ThT assay for the SOD1 aggregation was carried out per the recently published protocol. […]

[1] = De-metallated (5 mM EDTA) SOD1^A4V 50 μM with PB at 1:30 molar ratio
[2] = Metallated SOD1^A4V 50 μM with PB at 1:30 molar ratio

T1 sequence (P00441 whole entry A5V): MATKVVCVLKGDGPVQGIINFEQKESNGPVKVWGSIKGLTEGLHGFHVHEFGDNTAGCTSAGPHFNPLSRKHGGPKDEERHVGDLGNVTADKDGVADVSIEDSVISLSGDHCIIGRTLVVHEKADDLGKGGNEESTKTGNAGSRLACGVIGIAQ

- kapp [1]: 0.05 h⁻¹
- t50 [1]: 13.57 h
- tlag [1]: 13.55 h
- kapp [2]: 0.07 h⁻¹
- t50 [2]: 10.45 h
- tlag [2]: 10.44 h
- ThT signal of SOD1^A4V aggregation (Metallated SOD1^A4V 50 μM, PB 1:30, versus control): drastic reduction in the ThT signal
Structure (SMILES): CCCC[C@H](C)/C=C(C)/C=C/C(=O)O [PB, (S, 2E, 4E)-4,6-dimethyldeca-2,4-dienoic acid]
